Tests used:
ZNF312b gene = ZNF312b gene expression inhibition by siRNA; type: cell-based, human; settings: compared among three siRNAs, FIG. 3
From the text: To investigate the cell proliferation capacity of the stomach cancer cell line after inhibiting the expression of ZNF312b gene, three kinds of siRNAs [si-ZNF312b-1: 5′-GCA CTC TCT GCA TCT CAA C-3′ (SEQ. ID. NO: 6), si-ZNF312b-2: 5′-GTG TGT GGA AAG GTC TTT A-3′ (SEQ. ID. NO: 7), and si-ZNF312b-3′: 5′-GCA GTT CAA GTG CAA TAT C-3′ (SEQ. ID. NO: 8)] comprising 19 nucleotides of ZNF312b nucleotide sequence (SEQ. ID. NO: 1) were constructed, which were used for the investigation of ZNF312b gene expression inhibition.

K-ras / ERK pathway = assay: Western blotting of cell proliferation signal pathway after ZNF312b inhibition; type: cell-based, human; settings: stomach cancer cell line transfected with siRNA, FIG. 24
Protocol: First, lysis buffer A [20 mM HEPES (pH7.5), 150 mM NaCl, 1 mM EDTA, 2 mM EGTA, 1% Triton X-100, 10% glycerol, protease cocktail I, II (Sigma, USA)] was added to the cells, which stood at 4° C. for 20 minutes. The cell lysate was transferred into a new tube, followed by centrifugation at 4° C. at 15,000 rpm for 10 minutes to obtain protein. The cell lysate was heated at 95° C. for 10 minutes after adding 5× sample buffer, resulting in gel loading sample which proceeded to SDS PAGE gel electrophoresis. The protein bands separated according to their molecular weights by the above electrophoresis were transferred onto nitrocellulose membrane by using transfer kit (Bio-Rad, USA), followed by blocking for one hour with 5% skim milk. Next, each antibody [HA antibody for the detection of ZNF312b, and tubulin antibody for the detection of the control tubulin] was treated thereto at 4° C. for 12 hours. The membrane was washed with TBST buffer (0.2% Tween 20), and then treated with a secondary antibody for 1 hour. The membrane was washed with TBST and developed using HRP detection kit (AB frontier, Korea).
To investigate whether the signal pathway system involved in the cell proliferation of stomach cancer cell line was affected by inhibition of ZNF312b gene, the present inventors inhibited the expression of ZNF312b in stomach cancer cell line by transfecting the cell line with si-ZNF312b-1. […]

For “si-ZNF312b-1: siRNA of 19 nucleotides of ZNF312b sequence, 5′-GCA CTC TCT GCA TCT CAA C-3′ (SEQ. ID. NO: 6) (sense GCACTCTCTGCATCTCAAC; listed as DNA, chemistry not given here)”, the “ZNF312b gene expression inhibition” value (ZNF312b gene) was “highest inhibition activity”, the “ERK pathway activity (phosphorylation of MEK1/2 and ERK1/2)” value (K-ras / ERK pathway) was “inactivation of ERK pathway” and the K-ras expression (K-ras / ERK pathway) was “decrease of K-ras expression”.

— patent publication US8278285B2, “Gastric carcinoma gene ZNF312b, a protein translated from the gene, and a diagnostic kit and a screening method for anticancer agents using the same” (Korea Research Institute of Bioscience and Biotechnology, priority 2007, dated 2012)
